Results from patent publication US5912264A, “6-halo-or nitrate-substituted paclitaxels” (Bristol-Myers Squibb Company, priority 1998, dated 1999).
Read-outs that look alike come from different tables or passages of the source.

What was measured:
[1] = test system: HCT-116 human colon carcinoma cells; experiment: Cytotoxicity (in vitro) in HCT-116 human colon carcinoma cells, MTS assay; type: cell-based; conditions: read-out: IC50 (nM) HCT 116
Method: Cytoxicity was assessed in HCT-116 human colon carcinoma cells by MTS (3-(4,5-dimethylthiazol-2-yl)-5-(3-carboxymethoxyphenyl)-2-(4-sulphenyl)-2H-tetrazolium, inner salt) assay as reported in T. L. Riss, et. al., "Comparison of MTT, XTT, and a novel tetrazolium compound MTS for in vitro proliferation and chemosensitivity assays.," Mol. Biol. Cell 3 (Suppl.):184a, 1992. Cells were plated at 4,000 cell/well in 96 well microtiter plates and 24 hours later drugs were added and serial diluted. The cells were incubated at 37° form 72 hours at which time the tetrazolium dye, MTS at 333 μg/ml (final concentration), in combination with the electron coupling agent phenazine methosulfate at 25 μM (final concentration) was added. A dehydrogenase enzyme in live cells reduces the MTS to a form that absorbs light at […] which can be quantitated spectrophotometrically. The greater the absorbance the greater the number of live cells. The results are expressed as an IC50, which is the drug concentration required to inhibit cell proliferation (i.e. absorbance at 450 nm) to 50% of that of untreated control cells. The IC50 values for compounds evaluated in this assay are evaluated in Table I.

[2] = test system: M109 lung carcinoma; experiment: Mice M109 Model (In-Vivo), median survival time % T/C; parameters: species or system mice (Balb/c x DBA/2 F1 hybrid); conditions: Mus musculus, ip, days 1, 5 and 9 or days 5 and 8 post-implant, median survival T/C x 100
Method: Balb/c x DBA/2 F1 hybrid mice were implanted intraperitoneally, as described by William Rose in Evaluation of Madison 109 Lung Carcinoma as a Modelfor Screening Antitumor Drugs, Cancer Treatment Reports, 65, No. 3-4 (1981), with 0.5 mL of a 2% (w/v) brei of M109 lung carcinoma.
Mice were treated with compounds under study by receiving intraperitoneal injections of various doses on either days 1, 5 and 9 post-tumor implant or days 5 and 8 post-implant. Mice were followed daily for survival until approximately 75-90 days post-tumor implant. One group of mice per experiment remained untreated and served as the control group.
Median survival times of compound-treated (T) mice were compared to the median survival time of the control (C) mice. The ratio of the two values for each compound-treated group of mice was multiplied by 100 and expressed as a percentage (i.e. % T/C) in the following Table II for representative compounds.

[3] = in vivo animal models; cited from earlier work
[4] = HCT-116, 72 hours, MTS, inhibition of cell proliferation to 50% of untreated control

Row | SMILES | IC50 ([1]; HCT-116, 72 h) [nM] | response vs control in vivo at 100 mg/kg [2] [%] | further results
1 | CSCO[C@H]1[C@H](F)[C@H]2OC[C@@]2(OC(C)=O)[C@H]2[C@H](OC(=O)c3ccccc3)[C@]3(O)C[C@H](OC(=O)[C@H](O)[C@@H](NC(=O)c4ccccc4)c4ccccc4)C(C)=C([C@@H](OC(C)=O)C(=O)[C@@]21C)C3(C)C [Ic, 7-O-Meththiomethyl-6α-Fluoropaclitaxel] | 3.3 | 147 | 
2 | CC(=O)O[C@H]1C(=O)[C@@]2(C)[C@H]([C@H](OC(=O)c3ccccc3)[C@]3(O)C[C@H](OC(=O)[C@H](O)[C@@H](NC(=O)c4ccccc4)c4ccccc4)C(C)=C1C3(C)C)[C@]1(OC(C)=O)CO[C@@H]1[C@@H](Cl)[C@@H]2O [Ij, 6-α-Chloropaclitaxel] |  | 203 | IC50 [1, 4]: 1.2 nM
3 | CC(=O)O[C@H]1C(=O)[C@]2(C)C[C@@H](I)[C@H]3OC[C@@]3(OC(C)=O)[C@H]2[C@H](OC(=O)c2ccccc2)[C@]2(O)C[C@H](OC(=O)[C@H](O)[C@@H](NC(=O)c3ccccc3)c3ccccc3)C(C)=C1C2(C)C [Iq, 7-Deoxy-6-β-Iodopaclitaxel] | 2.24 |  | response vs control in vivo at 50 mg/kg [2]: 129%
4 | CC(=O)O[C@H]1C(=O)[C@@]2(C)[C@H]([C@H](OC(=O)c3ccccc3)[C@]3(O)C[C@H](OC(=O)[C@H](O)[C@@H](NC(=O)c4ccccc4)c4ccccc4)C(C)=C1C3(C)C)[C@]1(OC(C)=O)CO[C@@H]1[C@@H](O[N+](=O)[O-])[C@@H]2O [If, paclitaxel-6α-nitrate] | 1.5 | 132 | 
5 | CO[C@H]1[C@H](F)[C@H]2OC[C@@]2(OC(C)=O)[C@H]2[C@H](OC(=O)c3ccccc3)[C@]3(O)C[C@H](OC(=O)[C@H](O)[C@@H](NC(=O)c4ccccc4)c4ccccc4)C(C)=C([C@@H](OC(C)=O)C(=O)[C@@]21C)C3(C)C [Id, 7-O-Methyl-6α-Fluoropaclitaxel] | 0.83 | 147 | 
6 | CC(=O)O[C@H]1C(=O)[C@@]2(C)[C@H]([C@H](OC(=O)c3ccccc3)[C@]3(O)C[C@H](OC(=O)[C@H](O)[C@@H](NC(=O)OC(C)(C)C)c4ccccc4)C(C)=C1C3(C)C)[C@]1(OC(C)=O)CO[C@@H]1[C@@H](F)[C@@H]2O [Ik, 3'N-desbenzoyl-3'N-t-Butoxycarbonyl-6α-Fluoropaclitaxel] | 0.2 | 269 | 
7 | COCO[C@H]1[C@H](F)[C@H]2OC[C@@]2(OC(C)=O)[C@H]2[C@H](OC(=O)c3ccccc3)[C@]3(O)C[C@H](OC(=O)[C@H](O)[C@@H](NC(=O)OC(C)(C)C)c4ccccc4)C(C)=C([C@@H](OC(C)=O)C(=O)[C@@]21C)C3(C)C [Il, 3'N-desbenzoyl-3'N-t-Butoxycarbonyl-7-O-methoxymethyl-6a-Fluoropaclitaxel] | 2.5 |  | response vs control in vivo at 50 mg/kg [2]: 187%
8 | COCO[C@H]1[C@H](F)[C@H]2OC[C@@]2(OC(C)=O)[C@H]2[C@H](OC(=O)c3ccccc3)[C@]3(O)C[C@H](OC(=O)[C@H](O)[C@@H](NC(=O)c4ccccc4)c4ccccc4)C(C)=C([C@@H](OC(C)=O)C(=O)[C@@]21C)C3(C)C [Ib, 7-O-Methoxymethyl-6α-Fluoropaclitaxel] | 1.3 | 162 | 
9 | CC(=O)O[C@H]1C(=O)[C@@]2(C)[C@H]([C@H](OC(=O)c3ccccc3)[C@]3(O)C[C@H](OC(=O)[C@H](O)[C@@H](NC(=O)c4ccccc4)c4ccccc4)C(C)=C1C3(C)C)[C@]1(OC(C)=O)CO[C@@H]1[C@@H](Br)[C@@H]2O [Ie, 6α-Bromopaclitaxel] |  |  | IC50 [1, 4]: 2.6 nM; response vs control in vivo at 200 mg/kg ([2]; dose 200 mg/kg): 214%
10 | CO[C@H]1[C@H](F)[C@H]2OC[C@@]2(OC(C)=O)[C@H]2[C@H](OC(=O)c3ccccc3)[C@]3(O)C[C@H](OC(=O)[C@H](O)[C@@H](NC(=O)OC(C)(C)C)c4ccccc4)C(C)=C([C@@H](OC(C)=O)C(=O)[C@@]21C)C3(C)C [In, 3'N-desbenzoyl-3'N-t-Butoxycarbonyl-7-O-methyl-6α-Fluoropaclitaxel] |  |  | response vs control in vivo at 25 mg/kg [2]: 144%
11 | CC(=O)O[C@H]1C(=O)[C@@]2(C)[C@H]([C@H](OC(=O)c3ccccc3)[C@]3(O)C[C@H](OC(=O)[C@H](O)[C@@H](NC(=O)c4ccccc4)c4ccccc4)C(C)=C1C3(C)C)[C@]1(OC(C)=O)CO[C@@H]1C[C@@H]2O [paclitaxel] | 1.53 to 2.73 |  | antitumor activity [3]: excellent antitumor activity in in vivo animal models
12 | CC(=O)O[C@H]1C(=O)[C@@]2(C)[C@H]([C@H](OC(=O)c3ccccc3)[C@]3(O)C[C@H](OC(=O)[C@H](O)[C@@H](NC(=O)c4ccccc4)c4ccccc4)C(C)=C1C3(C)C)[C@]1(OC(C)=O)CO[C@@H]1[C@@H](F)[C@@H]2O [Ia, 6α-Fluoropaclitaxel] | 1.4 |  | 
13 | CC(=O)O[C@H]1C(=O)[C@]2(C)C[C@@H](Br)[C@H]3OC[C@@]3(OC(C)=O)[C@H]2[C@H](OC(=O)c2ccccc2)[C@]2(O)C[C@H](OC(=O)[C@H](O)[C@@H](NC(=O)c3ccccc3)c3ccccc3)C(C)=C1C2(C)C [Ip, 7-Deoxy-6-β-Bromopaclitaxel] | 0.72 |  | response vs control in vivo at 50 mg/kg [2]: 172%
14 | COCO[C@H]1[C@H](O[N+](=O)[O-])[C@H]2OC[C@@]2(OC(C)=O)[C@H]2[C@H](OC(=O)c3ccccc3)[C@]3(O)C[C@H](OC(=O)[C@H](O)[C@@H](NC(=O)c4ccccc4)c4ccccc4)C(C)=C([C@@H](OC(C)=O)C(=O)[C@@]21C)C3(C)C [Ii, 7-O-Methoxymethylpaclitaxel-6α-nitrate] | 4.95 |  | response vs control in vivo at 195 mg/kg [2]: 141%
15 | CC(=O)O[C@H]1C(=O)[C@]2(C)C[C@@H](Cl)[C@H]3OC[C@@]3(OC(C)=O)[C@H]2[C@H](OC(=O)c2ccccc2)[C@]2(O)C[C@H](OC(=O)[C@H](O)[C@@H](NC(=O)c3ccccc3)c3ccccc3)C(C)=C1C2(C)C [Io, 7-Deoxy-6-β-Chloropaclitaxel] |  |  | IC50 [1, 4]: 0.62 nM; response vs control in vivo at 25 mg/kg [2]: 166%
16 | CSCO[C@H]1[C@H](O[N+](=O)[O-])[C@H]2OC[C@@]2(OC(C)=O)[C@H]2[C@H](OC(=O)c3ccccc3)[C@]3(O)C[C@H](OC(=O)[C@H](O)[C@@H](NC(=O)c4ccccc4)c4ccccc4)C(C)=C([C@@H](OC(C)=O)C(=O)[C@@]21C)C3(C)C [Ih, 7-O-Methylthiomethylpaclitaxel-6α-nitrate] | 7.35 |  | response vs control in vivo at 195 mg/kg [2]: 132%
17 | CSCO[C@H]1[C@H](F)[C@H]2OC[C@@]2(OC(C)=O)[C@H]2[C@H](OC(=O)c3ccccc3)[C@]3(O)C[C@H](OC(=O)[C@H](O)[C@@H](NC(=O)OC(C)(C)C)c4ccccc4)C(C)=C([C@@H](OC(C)=O)C(=O)[C@@]21C)C3(C)C [Im, 3'N-desbenzoyl-3'N-t-Butoxycarbonyl-7-O-methylthiomethyl-6α-Fluoropaclitaxel] |  |  | IC50 [1, 4]: 1 nM
